In patent US20120071475A1, “UREA DERIVATIVES HAVING PI3K-INHIBITING ACTIVITY” (SHIONOGI & CO., LTD., priority 2009, published 2012):

Key:
[1] = target: PI3Kγ (Homo sapiens, UniProt P48736); test: PI3Kγ inhibitory activity (PI3-kinase HTRF assay, inhibition ratio); format: biochemical; settings: compound at 10 μmol/L; for inhibition at 10 µM: 0.5 h, read-out: PI3Kg Inhibition Ratio % (10 μM)
Experimental: For each compound synthesized in the above Examples, PI3Kγ inhibitory activity was measured.
The PI3Kγ inhibitory activity of a compound was evaluated using PI3-kinase HTRF™ assay (Millipore) according to the following procedure:
To each well of a testing plate, 5 μL of a compound solution containing 10% DMSO (40 μmol/L as the concentration of the compound), 5 μL of a substrate solution (40 μmol/L phosphatidylinositol (4,5)-bisphosphate, 20 mmol/L MgCl2, 10 mmol/L DTT), and 5 μL of an enzyme solution (80 μg/mL PI-3 kinase y, 10 mmol/L MgCl2, 5 mmol/L DTT) were added, and then allowed to stand for 10 minutes.
Then, 5 μL of a reaction solution (40 μmol/L ATP, 10 mmol/L MgCl2, 5 mmol/L DTT) was added thereto. After reacting for 30 minutes at room temperature, 5 μL of a solution containing EDTA and biotinylated phosphatidylinositol (3,4,5)-triphosphate was added to quench the reaction.
5 μL of a detection reagent containing a europium-labeled anti-GST antibody, the GST-tagged PH domain, and allophycocyanin-labeled streptavidin was added thereto. After 18 hours, HTRF (excitation wavelength: 330 nm, measured wavelengths: 620 nm and 665 nm) was measured.
HTRF ratio was defined as the value obtained by dividing the amount of fluorescence obtained at the measured wavelength 665 nm by the amount of fluorescence obtained at 620 nm. The HTRF ratio in the absence of a compound was defined as 100% activity and the HTRF ratio in the absence of PI-3 kinase y was defined as 0% activity to calculate an inhibition ratio, which was defined as the PI3Kγ inhibitory activity of a compound at 10 μmol/L.

[2] = Metabolic stability test (pooled human liver microsome); format: in vitro ADME; settings: percentage of test compound remained after 30 minutes, pooled human liver microsome 0.5 mg protein/mL, 1 mmol/L NADPH, 37° C.; for hLMS_ox(at 0.5 μM) %: compound 0.5 μM
Experimental: After a subject compound was reacted for a certain time using a pooled human liver microsome commercially available, a reacted sample and an unreacted sample are compared to calculate a survival ratio, and then the degree of metabolism in the liver was evaluated.
0.2 mL of a buffer solution (50 mmol/L of Tris-HCl in pH 7.4, 150 mmol/L of potassium chloride, and 10 mmol/L of magnesium chloride) containing a human liver microsome of 0.5 mg protein/mL was reacted in the presence of 1 mmol/L NADPH at 37° C. for 0 or 30 minutes (oxidative reaction). After reacting, 50 μL of the reaction solution was added to 100 μL of a solution of methanol/acetonitrile (1/1 (v/v)), mixed, and then centrifuged at 3000 rpm for 15 minutes. The test compound in the supernatant was quantitated with LC/MS/MS. The amount of the compound at a reaction time of 0 minute was defined as 100% and, based on that, the percentage of the test compound remained after reacting for 30 minutes was calculated.

Sequence of PI3Kγ (P48736 whole entry, species assumed): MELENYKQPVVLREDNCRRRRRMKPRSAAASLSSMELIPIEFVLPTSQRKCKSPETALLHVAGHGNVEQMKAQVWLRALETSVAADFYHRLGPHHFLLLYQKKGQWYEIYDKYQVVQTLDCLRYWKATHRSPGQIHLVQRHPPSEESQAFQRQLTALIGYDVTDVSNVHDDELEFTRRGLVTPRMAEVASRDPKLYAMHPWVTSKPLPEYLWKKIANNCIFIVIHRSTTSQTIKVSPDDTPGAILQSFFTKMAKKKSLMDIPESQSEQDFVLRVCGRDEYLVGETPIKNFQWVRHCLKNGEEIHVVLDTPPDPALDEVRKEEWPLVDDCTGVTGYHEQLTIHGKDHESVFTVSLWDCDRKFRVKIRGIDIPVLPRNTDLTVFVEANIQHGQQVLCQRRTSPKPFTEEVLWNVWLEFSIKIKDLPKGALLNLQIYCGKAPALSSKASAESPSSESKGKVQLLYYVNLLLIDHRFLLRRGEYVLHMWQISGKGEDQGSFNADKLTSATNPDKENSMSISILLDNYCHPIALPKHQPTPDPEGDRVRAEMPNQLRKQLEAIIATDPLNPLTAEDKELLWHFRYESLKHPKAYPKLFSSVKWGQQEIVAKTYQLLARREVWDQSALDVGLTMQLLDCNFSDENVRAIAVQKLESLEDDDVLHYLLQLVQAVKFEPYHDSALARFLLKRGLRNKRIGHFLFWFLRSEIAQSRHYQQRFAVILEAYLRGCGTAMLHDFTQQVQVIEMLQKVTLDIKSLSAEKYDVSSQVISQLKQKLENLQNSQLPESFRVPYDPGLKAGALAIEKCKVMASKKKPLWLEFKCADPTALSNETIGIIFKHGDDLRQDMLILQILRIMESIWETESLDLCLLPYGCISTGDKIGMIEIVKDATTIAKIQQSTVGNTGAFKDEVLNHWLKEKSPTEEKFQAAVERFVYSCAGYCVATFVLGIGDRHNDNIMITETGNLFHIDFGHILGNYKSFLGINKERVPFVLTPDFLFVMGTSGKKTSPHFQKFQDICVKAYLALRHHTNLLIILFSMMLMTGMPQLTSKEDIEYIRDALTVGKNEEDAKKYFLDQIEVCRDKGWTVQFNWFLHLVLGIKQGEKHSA

inhibition at 10 µM [1] [%] | Structure (SMILES) | further results
69 | COC(=O)c1sccc1NC(=O)Nc1nc2c(s1)CN(c1cc(OC)nc(OC)n1)CC2 [Compound I-2] | –
93 | COc1cc(N2CCc3nc(NC(=O)Nc4ccccc4C(=O)N4CCCCC4)sc3C2)nc(OC)n1 [Compound I-8] | –
74 | COC(=O)c1ccncc1NC(=O)Nc1nc2c(s1)CN(c1cc(OC)nc(OC)n1)CC2 [Compound I-21] | –
≥ 95 | COc1cc(N2CCc3nc(NC(=O)Nc4ccccc4C(=O)NC(C)(C)C#N)sc3C2)nc(OC)n1 [Compound I-25] | –
≥ 95 | COc1cc(N2CCc3nc(NC(=O)Nc4ccc(F)cc4C(=O)NC(C)C)sc3C2)nc(OC)n1 [Compound I-32] | –
≥ 95 | COc1cc(N2CCc3nc(NC(=O)Nc4ccccc4OCC(C)C)sc3C2)nc(OC)n1 [Compound I-47] | –
≥ 95 | COc1cc(N2CCc3nc(NC(=O)Nc4ccccc4CC(C)C)sc3C2)nc(OC)n1 [Compound I-68] | –
≥ 95 | CC(CO)NC(=O)c1ccccc1NC(=O)Nc1nc2c(s1)CN(c1ccnc(F)c1)CC2 (stereo not drawn) [Compound I-122] | hLMS_ox(at 0.5 μM) % [2]: 90.6%
85 | CC(C)NC(=O)c1nn(C)cc1NC(=O)Nc1nc2c(s1)CN(c1cncc(C(F)(F)F)c1)CC2 [Compound I-132] | –
83 | CO/N=C(\C)c1ccccc1NC(=O)Nc1nc2c(s1)CN(c1cc(OC)nc(OC)n1)CC2 [Compound I-196] | –
78 | COc1cc(N2CCc3nc(NC(=O)Nc4cccc5c4C(=O)N(C(C)C)C5)sc3C2)nc(OC)n1 [Compound I-201] | –
87 | C[C@@H](CO)NC(=O)c1ccccc1NC(=O)Nc1nc2c(s1)CN(c1ccc(C(F)(F)F)cc1)CC2 [Compound I-206] | –
93 | C[C@H](CO)NC(=O)c1ccccc1NC(=O)Nc1nc2c(s1)CN(c1ccc(C(F)(F)F)cc1)CC2 [Compound I-207] | hLMS_ox(at 0.5 μM) % [2]: 93.5%
≥ 95 | CC(=O)c1cccc(-c2ccc3nc(NC(=O)Nc4ccccc4OCCC(C)C)sc3c2)c1 [Compound I-214] | –
≥ 95 | COc1ccc(-c2ccc3nc(NC(=O)Nc4ccccc4OCCC(C)C)sc3c2)cn1 [Compound I-215] | –
88 | COc1ccc(-c2cc(NC(=O)Nc3ccccc3C(=O)NC(C)C)nn2C)cn1 [Compound I-228] | –

Second part, the molecule before the results:

Structure (SMILES) | inhibition at 10 µM [1] [%] | further results
COC(=O)c1ccsc1NC(=O)Nc1nc2c(s1)CN(c1cc(OC)nc(OC)n1)CC2 [Compound I-1] | 79 | –
COc1cc(N2CCc3nc(NC(=O)Nc4ccccc4C(=O)OC(C)(C)C)sc3C2)nc(OC)n1 [Compound I-3] | ≥ 95 | hLMS_ox(at 2 μM) % ([2]; compound 2 μM): 82%
COC(=O)c1ccccc1NC(=O)Nc1nc2c(s1)CN(c1cc(OC)nc(OC)n1)CC2 [Compound I-6] | ≥ 95 | –
COc1cc(N2CCc3nc(NC(=O)Nc4ccccc4C(=O)N(C)C(C)(C)C)sc3C2)nc(OC)n1 [Compound I-11] | 94 | –
COc1cc(N2CCc3nc(NC(=O)Nc4ccccc4C(=O)NC(C)(C)CO)sc3C2)nc(OC)n1 [Compound I-15] | 94 | –
COC(=O)C(C)(C)NC(=O)c1ccccc1NC(=O)Nc1nc2c(s1)CN(c1cc(OC)nc(OC)n1)CC2 [Compound I-17] | ≥ 95 | –
COCC(C)NC(=O)c1ccccc1NC(=O)Nc1nc2c(s1)CN(c1cc(OC)nc(OC)n1)CC2 (stereo not drawn) [Compound I-18] | 94 | –
COc1cc(N2CCc3nc(NC(=O)Nc4ccsc4C(=O)NC(C)(C)C)sc3C2)nc(OC)n1 [Compound I-26] | ≥ 95 | –
COc1cc(N2CCc3nc(NC(=O)Nc4ccccc4NC(=O)C(C)(C)C)sc3C2)nc(OC)n1 [Compound I-44] | ≥ 95 | –
COc1cc(N2CCc3nc(NC(=O)Nc4ccccc4C(=O)CCC(C)C)sc3C2)nc(OC)n1 [Compound I-66] | ≥ 95 | –
COc1cc(N2CCc3nc(NC(=O)Nc4ccccc4C(=O)NCCO)sc3C2)nc(OC)n1 [Compound I-85] | ≥ 95 | hLMS_ox(at 0.5 μM) % [2]: 90.2%
COc1cc(N2CCc3nc(NC(=O)Nc4ccccc4C(=O)NC(C)CO)sc3C2)nc(OC)n1 (stereo not drawn) [Compound I-87] | ≥ 95 | hLMS_ox(at 0.5 μM) % [2]: 91.9%
COc1nccc(N2CCc3nc(NC(=O)Nc4ccccc4OCCC(C)C)sc3C2)n1 [Compound I-96] | ≥ 95 | –
O=C(Nc1nc2c(s1)CN(c1ccnc(Cl)n1)CC2)Nc1ccccc1C(=O)NCCO [Compound I-99] | ≥ 95 | hLMS_ox(at 0.5 μM) % [2]: 90.6%
COc1cc(N2CCc3nc(NC(=O)Nc4ccccc4C(O)CC(C)C)sc3C2)nc(OC)n1 (stereo not drawn) [Compound I-116] | ≥ 95 | –
CC(CO)NC(=O)c1ccccc1NC(=O)Nc1nc2c(s1)CN(c1ccc(F)c(F)c1)CC2 (stereo not drawn) [Compound I-118] | ≥ 95 | hLMS_ox(at 0.5 μM) % [2]: 89.8%
CC(CO)NC(=O)c1ccccc1NC(=O)Nc1nc2c(s1)CN(c1cc(F)cc(F)c1)CC2 (stereo not drawn) [Compound I-119] | ≥ 95 | hLMS_ox(at 0.5 μM) % [2]: 90.8%
COc1cc(N2CCc3nc(NC(=O)N[C@@H]4C[C@H]4C(=O)NC(C)C)sc3C2)nc(OC)n1 [Compound I-130] | – | hLMS_ox(at 0.5 μM) % [2]: 104%
Cc1cc(N2CCc3nc(NC(=O)Nc4cn(C)nc4C(=O)NC(C)C)sc3C2)nc(Cl)n1 [Compound I-164] | 93 | –
COc1cc(N2CCc3nc(NC(=O)Nc4ccccc4S(=O)(=O)NC(C)C)sc3C2)nc(OC)n1 [Compound I-171] | 85 | –
COc1cc(N2CCc3nc(NC(=O)Nc4ccccc4O)sc3C2)nc(OC)n1 [Compound I-177] | 88 | –
Cc1cc(N2CCc3nc(NC(=O)Nc4ccccc4C(=O)NC(C)C)sc3C2)nc(C#N)n1 [Compound I-181] | 79 | hLMS_ox(at 0.5 μM) % [2]: 85.9%
CC(C)NC(=O)c1nn(C)cc1NC(=O)Nc1nc2c(s1)CN(c1cc[nH]c(=O)c1)CC2 [Compound I-184] | 75 | hLMS_ox(at 0.5 μM) % [2]: 98.1%
COc1cc(N2CCc3nc(NC(=O)Nc4ccccc4C(=O)NN(C)C)sc3C2)nc(OC)n1 [Compound I-194] | – | PI3Kg Inhibition Ratio % (10 μM) [1]: 92%
CC(=O)c1cccc(-c2ccc3nc(NC(=O)Nc4ccccc4OCCC(C)C)nn3c2)c1 [Compound I-217] | 88 | –
COc1ccc(-c2ccc3nc(NC(=O)Nc4ccccc4OCCC(C)C)nn3c2)cn1 [Compound I-218] | 90 | –
COc1ccc(-c2ccc3nc(NC(=O)Nc4ccccc4OCCC(C)C)sc3n2)cn1 [Compound I-220] | ≥ 95 | –
CC(=O)c1cccc(-c2cc(NC(=O)Nc3ccccc3OCCC(C)C)nn2C)c1 [Compound I-222] | ≥ 95 | –
